Where a SMILES comes first, the peptide text is derived from it. Bridges are numbered along the chain shown (N, C = ends). The star is where a group is joined. DOTA = O=C(O)CN1CCN(CC(=O)O)CCN(CC(=O)*)CCN(CC(=O)O)CC1; NOTA = O=C(O)CN1CCN(CC(=O)O)CCN(CC(=O)*)CC1; X1 = O=[N+]([O-])c1cc([N+](=O)[O-])c(*)cc1F; PEG4 = NCCOCCOCCOCCOCCC(=O)O

The subject of series [1] is HCT-116 tumor bearing mice. Description: Biodistribution. The note with it: for Bone uptake / Brain uptake / Fat uptake / Heart uptake / Kidney uptake / L lg int (lower large intestine) uptake / Liver uptake / Lung uptake / Muscle uptake / Sm int (small intestine) uptake / Spleen uptake / Stomach uptake / U lg int (upper large intestine) uptake: HCT-116 tumor bearing mice; for Bone uptake / Brain uptake / Fat uptake / Heart uptake / Kidney uptake / L lg int (lower large intestine) uptake / Liver uptake / Lung uptake / Muscle uptake / Sm int (small intestine) uptake / Spleen uptake / Stomach uptake / U lg int (upper large intestine) uptake / Tumor uptake: gamma counter; for Bone uptake / Brain uptake / Fat uptake / Heart uptake / Kidney uptake / L lg int (lower large intestine) uptake / Liver uptake / Lung uptake / Muscle uptake / Sm int (small intestine) uptake / Spleen uptake / Stomach uptake / U lg int (upper large intestine) uptake / Tumor uptake / Tumor-to-blood ratio: mean ± SD; for Tumor uptake: HCT-116 tumor xenograft; for Tumor uptake / Tumor-to-blood ratio: mice; for Tumor-to-blood ratio: HCT-116 tumor xenografts.

A further series in a line: in vivo. To be noted: female, athymic Nu/Nu, mouse, 3.7 MBq, total radioactivity.
Setting [2] is: Sm int (small intestine) uptake.

With `[Cl][55Co][Cl]` [^55CoCl2], in series [1] (2 hr p.i.), the Bone uptake is listed as 1.3 ± 0.2 %ID/g, the Brain uptake was 0.31 ± 0.02 %ID/g, the Fat uptake stood at 1.5 ± 0.9 %ID/g and the Heart uptake is listed as 4.8 ± 0.4 %ID/g. For the same compound, in series [1] (2 hr p.i.), the Kidney uptake is recorded as 10.5 ± 1.4 %ID/g, the “L lg int (lower large intestine) uptake” value is reported as 1.9 ± 1.0 %ID/g, the Liver uptake is 15.7 ± 0.4 %ID/g and the Lung uptake was determined as 4.0 ± 0.3 %ID/g. In series [1] (2 hr p.i.), the Muscle uptake amounted to 0.6 ± 0.1 %ID/g, the “Sm int (small intestine) uptake” value worked out at 3.6 ± 0.6 %ID/g, the Spleen uptake was 1.9 ± 0.4 %ID/g and the Stomach uptake worked out at 1.1 ± 0.1 %ID/g. For the same compound, in series [1] (2 hr p.i.), the “U lg int (upper large intestine) uptake” value is given as 4.3 ± 0.8 %ID/g and the Tumor uptake was determined as 2.8 ± 0.6 %ID/g. The Tumor-to-blood ratio in series [1] (2 hrs p.i.) came to 0.6 ± 0.1. In series [1] (24 hr p.i., n=3), the Bone uptake amounted to 0.8 ± 0.1 %ID/g, the Brain uptake came to 0.17 ± 0.03 %ID/g, the Fat uptake was found to be 0.7 ± 0.4 %ID/g and the Heart uptake amounted to 2.8 ± 0.7 %ID/g. For the same compound, in series [1] (24 hr p.i., n=3), the Kidney uptake was 4.4 ± 0.4 %ID/g, the “L lg int (lower large intestine) uptake” value is 2.2 ± 0.3 %ID/g, the Liver uptake came to 6.2 ± 0.8 %ID/g and the Lung uptake was 1.9 ± 0.1 %ID/g. For the same compound, in series [1] (24 hr p.i., n=3), the Muscle uptake stood at 0.37 ± 0.08 %ID/g, the “Sm int (small intestine) uptake” value was found to be 1.1 ± 0.2 %ID/g, the Spleen uptake was 0.82 ± 0.05 %ID/g and the Stomach uptake was 1.0 ± 0.2 %ID/g. In series [1] (24 hr p.i., n=3), the “U lg int (upper large intestine) uptake” value was determined as 1.5 ± 0.1 %ID/g and the Tumor uptake amounted to 1.6 ± 0.2 %ID/g. Besides, in series [1] (48 hr p.i., n=3), the Bone uptake was determined as 0.5 ± 0.1 %ID/g, the Brain uptake stood at 0.11 ± 0.01 %ID/g, the Fat uptake came out at 0.23 ± 0.05 %ID/g and the Heart uptake came out at 1.4 ± 0.2 %ID/g. Besides, in series [1] (48 hr p.i., n=3), the Kidney uptake is recorded as 1.9 ± 0.2 %ID/g, the “L lg int (lower large intestine) uptake” value turned out to be 1.2 ± 0.2 %ID/g, the Liver uptake is 2.7 ± 0.7 %ID/g and the Lung uptake is 0.98 ± 0.09 %ID/g. In series [1] (48 hr p.i., n=3), the Muscle uptake is listed as 0.17 ± 0.03 %ID/g, the “Sm int (small intestine) uptake” value stood at 0.50 ± 0.04 %ID/g, the Spleen uptake came out at 0.46 ± 0.04 %ID/g and the Stomach uptake is 0.5 ± 0.1 %ID/g. Moreover, in series [1] (48 hr p.i., n=3), the “U lg int (upper large intestine) uptake” value is reported as 0.7 ± 0.1 %ID/g and the Tumor uptake was determined as 0.86 ± 0.08 %ID/g. Moreover, the Tumor-to-blood ratio in series [1] (48 hrs p.i., P=0.006 vs 2 hrs) stood at 1.9 ± 0.4. Moreover, in series [1] (at 24 and 48 hrs p.i. after high uptake at 2 hrs p.i.), the “Consecutive decrease in liver and kidney uptake” value is on record as “about 2 fold”. Further, the “Increase of tumor-to-blood ratio” value in series [1] (from 2 to 48 hrs p.i.) was determined as 3 fold.
By tissue uptake is commonly meant the share of the injected amount in each gram of the tissue. As to `CC[C@H](C)[C@@H]1NC(=O)[C@H](CC(=O)O)NC(=O)[C@@H](NC(=O)[C@H](CCC(=O)O)NC(=O)[C@H](CC(N)=O)NC(=O)CNC(=O)CNC(=O)CCOCCOCCOCCOCCNC(=O)CN2CCN(CC(=O)O)CCN(CC(=O)O)CC2)CSSC[C@@H](C(=O)N[C@@H](Cc2ccccc2)C(=O)N[C@@H](CCC(=O)O)C(=O)N[C@@H](CCCNC(=N)N)C(=O)N[C@@H](CCCCNc2cc(F)c([N+](=O)[O-])cc2[N+](=O)[O-])C(N)=O)NC(=O)[C@H](CCC(=O)O)NC(=O)[C@H](Cc2c[nH]c3ccccc23)NC(=O)[C@H](CCC(=O)O)NC(=O)[C@H](Cc2c[nH]c3ccccc23)NC(=O)[C@H](CCSC)NC(=O)[C@H](CCCNC(=N)N)NC(=O)[C@H](C)NC1=O` [^55Co-NO2A-L19K-FDNB] ({NOTA-PEG4}-GGNECDIARMWEWECFERK(X1)-NH2; disulfide 5-15), the tissue uptake at 24 h worked out at 0.28 ± 0.04 %ID/g in the series “in vivo” (Bone uptake); 0.8 ± 0.4 %ID/g in the series “in vivo” (Fat uptake); 1 ± 0.1 %ID/g in the series “in vivo” (Liver uptake); 0.9 ± 0.1 %ID/g in the series “in vivo” (Lung uptake); 0.26 ± 0.01 %ID/g in “in vivo” (setting [2]); 0.9 ± 0.1 %ID/g in “in vivo” (Tumor uptake). Besides, the tissue uptake at 48 h in “in vivo” (Bone uptake) worked out at 0.14 ± 0.02 %ID/g; in “in vivo” (Fat uptake), 0.3 ± 0.1 %ID/g; in “in vivo” (Liver uptake), 0.44 ± 0.03 %ID/g; in the series “in vivo” (Lung uptake), 0.46 ± 0.06 %ID/g; in “in vivo” (setting [2]), 0.14 ± 0.04 %ID/g; in “in vivo” (Tumor uptake), 0.49 ± 0.09 %ID/g.
Turning to `CC[C@H](C)[C@@H]1NC(=O)[C@H](CC(=O)O)NC(=O)[C@@H](NC(=O)[C@H](CCC(=O)O)NC(=O)[C@H](CC(N)=O)NC(=O)CNC(=O)CNC(=O)CCOCCOCCOCCOCCNC(=O)CN2CCN(CC(=O)O)CCN(CC(=O)O)CCN(CC(=O)O)CC2)CSSC[C@@H](C(=O)N[C@@H](Cc2ccccc2)C(=O)N[C@@H](CCC(=O)O)C(=O)N[C@@H](CCCNC(=N)N)C(=O)N[C@@H](CCCCNc2cc(F)c([N+](=O)[O-])cc2[N+](=O)[O-])C(N)=O)NC(=O)[C@H](CCC(=O)O)NC(=O)[C@H](Cc2c[nH]c3ccccc23)NC(=O)[C@H](CCC(=O)O)NC(=O)[C@H](Cc2c[nH]c3ccccc23)NC(=O)[C@H](CCSC)NC(=O)[C@H](CCCNC(=N)N)NC(=O)[C@H](C)NC1=O` [^55Co-DO3A-L19K-FDNB] ({DOTA-PEG4}-GGNECDIARMWEWECFERK(X1)-NH2; disulfide 5-15), the tissue uptake at 24 h was determined as 0.3 ± 0.04 %ID/g in “in vivo” (Bone uptake); 0.4 ± 0.1 %ID/g in the series “in vivo” (Fat uptake); 1.1 ± 0.2 %ID/g in “in vivo” (Liver uptake); 0.8 ± 0.1 %ID/g in the series “in vivo” (Lung uptake); 0.31 ± 0.04 %ID/g in the series “in vivo” (setting [2]); 1.1 ± 0.2 %ID/g in “in vivo” (Tumor uptake). Besides, the tissue uptake at 48 h is 0.26 ± 0.05 %ID/g in “in vivo” (Bone uptake); 0.3 ± 0.03 %ID/g in the series “in vivo” (Fat uptake); 0.7 ± 0.1 %ID/g in “in vivo” (Liver uptake); 0.56 ± 0.03 %ID/g in “in vivo” (Lung uptake); 0.19 ± 0.03 %ID/g in “in vivo” (setting [2]); 0.71 ± 0.03 %ID/g in the series “in vivo” (Tumor uptake).
